Data: ChEMBL document CHEMBL1201862, “PubChem BioAssay data set” (2004)
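Cells were grown in 96-well plates and exposed to each compound for 48 hours at five concentrations; endpoints were interpolated linearly between bracketing concentrations, or set to the highest concentration if not reached. Here, GI50 denotes the concentration required for 50% inhibition of growth.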 The source made the active and inactive calls. Cut-off read from the data, not from the text of the source: active = GI50 up to about 1.1 µM and inactive = higher.

Experiments:
Test in all cases: inhibition of tumour cell growth, NCI panel, 48 h
786-0 = test system: 786-0
A549 = test system: A549
ACHN = test system: ACHN
CCRF-CEM = test system: CCRF-CEM
COLO 205 = test system: COLO 205
DMS-114 = test system: DMS-114
DMS-273 = test system: DMS-273
EKVX = test system: EKVX
HCT-15 = test system: HCT-15
HL-60 = test system: HL-60
HOP-62 = test system: HOP-62
HOP-92 = test system: HOP-92
HT-29 = test system: HT-29
IGROV-1 = test system: IGROV-1
K562 = test system: K562
KM-20L2 = test system: KM-20L2
KM12 = test system: KM12
LOX IMVI = test system: LOX IMVI
LXFL 529 = test system: LXFL 529
M14 = test system: M14
M19-MEL = test system: M19-MEL
MOLT-4 = test system: MOLT-4
Malme-3M = test system: Malme-3M
NCI-H226 = test system: NCI-H226
NCI-H23 = test system: NCI-H23
NCI-H460 = test system: NCI-H460
OVCAR-3 = test system: OVCAR-3
OVCAR-5 = test system: OVCAR-5
OVCAR-8 = test system: OVCAR-8
RPMI-8226 = test system: RPMI-8226
RXF 393 = test system: RXF 393
SF-268 = test system: SF-268
SF-295 = test system: SF-295
SF-539 = test system: SF-539
SK-MEL-2 = test system: SK-MEL-2
SK-OV-3 = test system: SK-OV-3
SN12C = test system: SN12C
SNB-19 = test system: SNB-19
SNB-75 = test system: SNB-75
SNB-78 = test system: SNB-78
SR = test system: SR
SW-620 = test system: SW-620
U-251 = test system: U-251
UACC-257 = test system: UACC-257
UACC-62 = test system: UACC-62
UO-31 = test system: UO-31
XF498 = test system: XF498

**Q.** Which results are given for `C#CCC[C@@H]1O[C@@]1(C)CC/C=C(\C)CC/C=C/C=O`?
**A.** GI50 (786-0): 73.5 µM (inactive); GI50 (A549): 43.6 µM (inactive); GI50 (ACHN): 50.1 µM (inactive); GI50 (CCRF-CEM): 23.3 µM (inactive); GI50 (COLO 205): 26.7 µM (inactive); GI50 (DMS-114): 14.6 µM (inactive); GI50 (DMS-273): 20 µM (inactive); GI50 (EKVX): 58.3 µM (inactive); GI50 (HCT-15): 35 µM; GI50 (HL-60): 23.9 µM (inactive); GI50 (HOP-62): > 100 µM (inactive); GI50 (HOP-92): 28.5 µM (inactive); GI50 (HT-29): 37.2 µM (inactive); GI50 (IGROV-1): 22.1 µM (inactive); GI50 (K562): 22.6 µM (inactive); GI50 (KM-20L2): 36.4 µM (inactive); GI50 (KM12): 36.9 µM (inactive); GI50 (LOX IMVI): 18.4 µM (inactive); GI50 (LXFL 529): 20.1 µM (inactive); GI50 (M14): 21.3 µM (inactive); GI50 (M19-MEL): 24.2 µM (inactive); GI50 (MOLT-4): 22.4 µM (inactive); GI50 (Malme-3M): 20 µM (inactive); GI50 (NCI-H226): 60.3 µM (inactive); GI50 (NCI-H23): 29 µM (inactive); GI50 (NCI-H460): 41.1 µM (inactive); GI50 (OVCAR-3): 29.8 µM (inactive); GI50 (OVCAR-5): > 100 µM (inactive); GI50 (OVCAR-8): 18.6 µM (inactive); GI50 (RPMI-8226): 19.3 µM (inactive); GI50 (RXF 393): 40.6 µM (inactive); GI50 (SF-268): 22.2 µM (inactive); GI50 (SF-295): 26.5 µM (inactive); GI50 (SF-539): 18.2 µM (inactive); GI50 (SK-MEL-2): 55.7 µM (inactive); GI50 (SK-OV-3): > 100 µM (inactive); GI50 (SN12C): 30.3 µM (inactive); GI50 (SNB-19): 45.1 µM (inactive); GI50 (SNB-75): 42.6 µM (inactive); GI50 (SNB-78): 25.3 µM (inactive); GI50 (SR): 26.4 µM (inactive); GI50 (SW-620): 23.3 µM (inactive); GI50 (U-251): 22 µM (inactive); GI50 (UACC-257): 23.6 µM (inactive); GI50 (UACC-62): 17.9 µM (inactive); GI50 (UO-31): 35.8 µM (inactive); GI50 (XF498): 24.2 µM (inactive)
